The values below come from ChEMBL document CHEMBL5523700, “Discovery and characterization of potent spiro-isoxazole-based cereblon ligands with a novel binding mode” (Eur J Med Chem, 2024).

In one data set the test system is KMS-12-PE. The data set can be described thus: Cytotoxicity against human KMS-12-PE cells assessed as cell survival at 30 uM incubated for 48 hrs by Cell Titer-Glo luminescent assay relative to control. The conditions noted are these: read-out: Survival. It counts as functional. In general terms: ATP-based viability assays read luminescence as a measure of living cells.

Data set [1] can be described thus: Lipophilicity, logP of compound by HPLC analysis. The format is physicochemical.
Data set [2] is described as follows: Cytotoxicity against human PBMC cells assessed as cell survival at 30 uM incubated for 48 hrs by Cell Titer-Glo luminescent assay relative to control. It counts as toxicity, cell-based. The note with it: read-out: Survival.
A further data set has as its system MOLP-8. In words: Cytotoxicity against human MOLP8 cells assessed as cell survival at 30 uM incubated for 48 hrs by Cell Titer-Glo luminescent assay relative to control. The format is functional. The note with it: read-out: Survival.
In the next data set the test system is MM1.S. In words: Cytotoxicity against human MM1.S cells assessed as cell survival at 30 uM incubated for 48 hrs by Cell Titer-Glo luminescent assay relative to control. The note with it: read-out: Survival. It counts as functional.
Data set [3] can be described thus: Stability in human plasma assessed as half-life at 10 uM incubated upto 480 mins by HPLC analysis. The format is ADME, cell-free.
The next data set deals with Protein cereblon (Homo sapiens, UniProt Q96SW2). The data set can be described thus: Binding affinity to human CRBN TBD assessed as inhibition constant using BODIPY-uracil as substrate by Microscale thermophoresis assay. (In general: In MST a laser heats a spot of the sample, and binding alters the fluorescence response.)
Sequence of Protein cereblon (Q96SW2 whole entry): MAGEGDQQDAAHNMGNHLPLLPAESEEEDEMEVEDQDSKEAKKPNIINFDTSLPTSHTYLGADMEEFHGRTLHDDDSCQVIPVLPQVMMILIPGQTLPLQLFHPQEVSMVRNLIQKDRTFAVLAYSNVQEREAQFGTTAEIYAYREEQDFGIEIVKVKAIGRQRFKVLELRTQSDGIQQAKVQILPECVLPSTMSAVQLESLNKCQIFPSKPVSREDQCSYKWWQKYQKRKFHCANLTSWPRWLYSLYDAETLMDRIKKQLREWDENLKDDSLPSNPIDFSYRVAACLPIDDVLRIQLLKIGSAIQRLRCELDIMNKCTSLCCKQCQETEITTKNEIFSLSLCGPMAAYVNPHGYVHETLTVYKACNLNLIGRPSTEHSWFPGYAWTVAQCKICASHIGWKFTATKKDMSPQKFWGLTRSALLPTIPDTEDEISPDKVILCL

As to `O=C1CCC2(CC(c3ccccc3[N+](=O)[O-])=NO2)C(=O)N1` (stereo unspecified), the viability at 30 µM was determined as 88.5% in the data set on KMS-12-PE, 75.5% in the data set with MOLP-8 and 81.9% in the data set with MM1.S. In data set [1], the logP (usually a log measure of how a compound divides between an organic and an aqueous phase) came out at 1.23. In addition, in data set [2], the viability at 48 h, 30 µM amounted to 71.5%.

Take `O=C1CCC2(CC(c3c(Cl)cccc3Cl)=NO2)C(=O)N1` (stereo unspecified): the viability at 30 µM in the data set with KMS-12-PE turned out to be 99.3%; with MOLP-8, 94.9%; in the data set with MM1.S, 39.5%. In data set [1], this molecule registered a logP of 1.96. In data set [2], the viability at 48 h, 30 µM came out at 88.6%.

`CCC(CC)C1=NOC2(CCC(=O)NC2=O)C1` (stereo unspecified): the viability at 30 µM with KMS-12-PE was found to be 98.9%; with MOLP-8, 94.1%; in the data set with MM1.S, 89.1%. This molecule also displayed a logP in data set [1] of 1.6. Moreover, the viability at 48 h, 30 µM in data set [2] is 91.2%.

As for `O=C1CCC2(CC(c3ccccc3F)=NO2)C(=O)N1` (stereo unspecified), the viability at 30 µM in the data set on KMS-12-PE amounted to 89.2%; in the data set with MOLP-8, 84.5%; with MM1.S it was 76.5%. In addition, in data set [1], the logP came out at 1.37. Also, the viability at 48 h, 30 µM in data set [2] was determined as 88.6%.

For the molecule `O=C1CCC2(CC(c3cccnc3)=NO2)C(=O)N1` (stereo unspecified), the viability at 30 µM was found to be 88.9% in the data set with KMS-12-PE, 75.5% in the data set with MOLP-8 and 23.2% with MM1.S. In addition, the viability at 48 h, 30 µM in data set [2] came out at 83.6%.

For the molecule `O=C1CCC2(CC(C3CCCC3)=NO2)C(=O)N1` (stereo unspecified), the viability at 30 µM is 92% in the data set with KMS-12-PE, 93% in the data set on MOLP-8 and 62.2% in the data set on MM1.S. For the same molecule, the logP in data set [1] was found to be 1.28. Moreover, in data set [2], the viability at 48 h, 30 µM came out at 89.9%.

In the case of `COc1ccccc1C1=NOC2(CCC(=O)NC2=O)C1` (stereo unspecified), the viability at 30 µM in the data set with KMS-12-PE is 86.6%; in the data set on MOLP-8, 79.3%; with MM1.S it was 94.8%. In data set [1], this molecule returned a logP of 2.22. Moreover, the viability at 48 h, 30 µM in data set [2] was determined as 100%.

Turning to `Nc1cccc2c1C(=O)N(C1CCC(=O)NC1=O)C2=O` (stereo unspecified) [POMALIDOMIDE], the half-life (commonly the time needed for the level to fall by half in the phase considered) at 10 µM in data set [3] turned out to be 3.03 h.

Regarding `COc1ccc(C2=NOC3(CCC(=O)NC3=O)C2)c(OC)c1OC` (stereo unspecified), the figures for the viability at 30 µM in the data set with KMS-12-PE, in the data set with MOLP-8 and in the data set on MM1.S were 72.2%, 66.3% and 78.7%, respectively. The molecule further yielded a logP in data set [1] of 2.67. In addition, the viability at 48 h, 30 µM in data set [2] amounted to 82.4%.

With `O=C1CCC2(CC(C3CCCCC3)=NO2)C(=O)N1` (stereo unspecified), the figures for the viability at 30 µM in the data set with KMS-12-PE, in the data set with MOLP-8 and in the data set with MM1.S were 100%, 97% and 100%, respectively. Further, in data set [1], the logP turned out to be 1.87. Besides, in data set [2], the viability at 48 h, 30 µM amounted to 100%.

With `O=C1CCC2(CC(c3ccc(Cl)cc3Cl)=NO2)C(=O)N1` (stereo unspecified), the viability at 30 µM with KMS-12-PE came out at 100%; with MOLP-8, 100%; in the data set with MM1.S, 71.7%. Besides, in data set [1], the logP came out at 2.68. Further, the viability at 48 h, 30 µM in data set [2] came to 100%.

Consider `CCCC1=NOC2(CCC(=O)NC2=O)C1` (stereo unspecified), for which the viability at 30 µM was 100% with KMS-12-PE, 100% with MOLP-8 and 76.7% in the data set with MM1.S. The molecule also showed a logP in data set [1] of 0.87. The viability at 48 h, 30 µM in data set [2] amounted to 100%.

Regarding `O=C1CCC2(CC(c3ccccc3Cl)=NO2)C(=O)N1` (stereo unspecified), in data set [3], the half-life at 10 µM worked out at 4.97 h. Also, the viability at 30 µM in the data set on KMS-12-PE worked out at 100%; in the data set with MOLP-8, 100%; in the data set with MM1.S, 43.3%. The same molecule displayed a logP in data set [1] of 1.64. For the same molecule, the viability at 48 h, 30 µM in data set [2] was 100%.

With `O=C1CCC(N2C(=O)c3ccccc3C2=O)C(=O)N1` (stereo unspecified) [THALIDOMIDE], the viability at 30 µM worked out at 44.1% in the data set on KMS-12-PE, 31.6% in the data set with MOLP-8 and 11.4% with MM1.S. In data set [1], the logP was 0.3. Moreover, the viability at 48 h, 30 µM in data set [2] was 94.2%.

Turning to `O=C1CCC2(CC(c3ccccc3I)=NO2)C(=O)N1` (stereo unspecified), the viability at 30 µM was 100% in the data set on KMS-12-PE, 82.2% in the data set with MOLP-8 and 69.3% in the data set with MM1.S. The molecule further registered a logP in data set [1] of 1.75. Besides, the viability at 48 h, 30 µM in data set [2] was 100%.

As for `O=C1CCC2(CC(c3ccc(C(=O)O)cc3)=NO2)C(=O)N1` (stereo unspecified), the results for the viability at 30 µM in the data set with KMS-12-PE, with MOLP-8 and in the data set with MM1.S were 97.3%, 100% and 95.6%, respectively. Further, the viability at 48 h, 30 µM in data set [2] came to 99.5%.

As for `CC1(C)CC(=O)NC(=O)C1`, the Ki (in general, the equilibrium dissociation constant of an inhibitor or competing ligand from its target) at Protein cereblon worked out at 103 µM.

As for `CC(C)(C)C1=NOC2(CCC(=O)NC2=O)C1` (stereo unspecified), the viability at 30 µM amounted to 100% in the data set with KMS-12-PE, 100% in the data set on MOLP-8 and 75.6% in the data set with MM1.S. In addition, the logP in data set [1] amounted to 1.09. In addition, the viability at 48 h, 30 µM in data set [2] was 100%.

With `O=C1CCC2(CC(c3ccccc3Br)=NO2)C(=O)N1` (stereo unspecified), the viability at 30 µM amounted to 97.8% in the data set with KMS-12-PE, 100% in the data set on MOLP-8 and 88.3% in the data set on MM1.S. The lipophilicity (logP) in data set [1] worked out at 1.68. Also, the viability at 48 h, 30 µM in data set [2] was 74.9%.
